Laboratory results as given in ChEMBL document CHEMBL2363022, “Malaria Box Schistosomiasis Screening Data” (2013).

How the values were obtained:
Type in all cases: functional
Schistosoma mansoni [1] = test system: Schistosoma mansoni; parameters: scale not given here
Schistosoma mansoni [2] = test system: Schistosoma mansoni; parameters: scale not given here; remark: listed apart in the source
Schistosoma mansoni [3] = test system: Schistosoma mansoni; parameters: scale not given here; remark: listed apart in the source
Schistosoma mansoni [4] = assay: MMV: Toxicity @ 5 uM to 4-5 Schistosoma mansoni adult males after 24 h on a scale of 0 (none) - 4 (most). Includes short descriptors of effects as judged visually (PMID:19597541). Only those Malaria box 'drug-like' cpds yielding the most severe phenotypes vs. somules were tested. Caffrey group UCSF.
Schistosoma mansoni [5] = assay: MMV: Toxicity @ 5 uM to 4-5 Schistosoma mansoni adult males after 48 h on a scale of 0 (none) - 4 (most). Includes short descriptors of effects as judged visually (PMID:19597541). Only those Malaria box 'drug-like' cpds yielding the most severe phenotypes vs. somules were tested. Caffrey group UCSF.
Schistosoma mansoni [6] = assay: MMV: Toxicity @ 5 uM to 4-5 Schistosoma mansoni adult males after 72 h on a scale of 0 (none) - 4 (most). Includes short descriptors of effects as judged visually (PMID:19597541). Only those Malaria box 'drug-like' cpds yielding the most severe phenotypes vs. somules were tested. Caffrey group UCSF.
Schistosoma mansoni [7] = assay: (§1) MMV: Motility assay. Percent change (relative to DMSO controls) @ 5 uM of movement of 4-5 Schistosoma mansoni adult males after 24 h as measured by the Consensus Voting Luminance Difference algorithm available on WormAssay (PMID:22303493). Occasional incongruence ocurrs between the motility scores and the visually adjudicated 'toxicity scores'. In these cases the 'toxicity score' should be prioritized. Only those Malaria box 'Drug-like' cpds yielding the most severe phenotypes vs. somules were tested. Caffrey group UCSF.
Schistosoma mansoni [8] = assay: as §1, with “48” for “24”
Schistosoma mansoni [9] = assay: as §1, with “72” for “24”

Compound | Toxicity (Schistosoma mansoni [1]) | Toxicity (Schistosoma mansoni [2]) | Toxicity (Schistosoma mansoni [3]) | Toxicity (Schistosoma mansoni [4]) | Toxicity (Schistosoma mansoni [5]) | Toxicity (Schistosoma mansoni [6]) | Motility (Schistosoma mansoni [7]) | Motility (Schistosoma mansoni [8]) | Motility (Schistosoma mansoni [9])
COc1ccc2nc(C)cc(Nc3ccc(Cl)cc3)c2c1 | 3 | 4 | 4 | 2 | 2 | 3 | 75.2 | 87.4 | Slow, on sides, dark
Cl.OC(CNCc1ccccc1)Cn1c2ccccc2c2ccccc21 (stereo not drawn) | 4 | 4 | 4 | 0 | 0 | 0 | 38.1 | 49.4 | No effect
CC(C)=CCN1CCC(C(=O)Nc2ccc(-c3nc4ccccc4[nH]3)cc2)CC1 | 1 | 1 | 1 | 0 | 0 | 0 | 139.1 | 93.7 | 119
CCn1nc(-c2ccc(C(=O)OC)cc2)nc2c(=O)n(C)c(=O)nc1-2 | 4 | 4 | 4 | 0 | 0 | 0 | 99.1 | 97 | 78.5
CN(C)CCNc1cc(-c2ccccc2)nc2ccccc12 | 2 | 2 | 1 | 1 | 0 | 0 | 151.9 | 68.3 | No effect
Cl.Clc1cc(Br)ccc1-c1ccc(CNCC2CCNCC2)o1 | 4 | 4 | 4 | 2 | 3 | 2 | 27.8 | 52.5 | On sides, dark
O=C(Nc1cccc(C(F)(F)F)c1)c1cc(Cl)ccc1O | 4 | 4 | 4 | 4 | 4 | 4 | 0.5 | 0.4 | 0.7
O=C(NC(c1ccccc1)c1ccc2cccnc2c1O)c1ccccc1 (stereo not drawn) | 0 | 3 | 4 | 0 | 3 | 4 | 74 | 16.1 | Slow, on sides, dark, tegument damage
Clc1ccc2c(N3CCCC3)ccnc2c1 | 1 | 0 | 2 | 0 | 0 | 0 | 163 | 131.1 | No effect
COc1cccc(O)c1CN1CCC2(CCCN(Cc3ccc(F)cc3)C2)C1 (stereo not drawn) | 3 | 2 | 3 | 0 | 0 | 0 | 168.1 | 133.2 | 92.4
Oc1ccccc1CN1CCC2(CCCN(Cc3ccccc3F)C2)C1 (stereo not drawn) | 2 | 3 | 3 | 1 | 1 | 1 | 175.4 | 150.6 | overactive
CCCCc1ccc(NS(=O)(=O)c2cc3c4c(c2)CCN4C(=O)CC3)cc1 | 2 | 0 | 0 | 0 | 0 | 0 | 109.4 | 170.6 | 80.4
